PubChem BioAssay AID328 (DTP/NCI, 2004)
Values joined by “and” are separate entries in the source; they are usually repeats but may differ in a detail not shown here. Equal entries are not always repeated. Toxic doses and inconclusive results are not listed.

Tested on: BDF1 mice, P388 leukemia ip, median survival T/C
Test: NCI In Vivo Anticancer Drug Screen. Data for tumor model P388 Leukemia (intraperitoneal) in B6D2F1 (BDF1) mice
Conditions: endpoint: median survival time, higher = longer survival
Outline: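 Vehicle-dosed animals serve as the reference; survival of compound-dosed, tumour-implanted mice is divided by it.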

[1] = dose: 25.0 mg/kg/injection, schedule: Q04DX003 (ip), vehicle: saline with Tween-80
[2] = dose: 100.0 mg/kg/injection, schedule: Q01DX009 (ip), vehicle: other
[3] = dose: 100.0 mg/kg/injection, schedule: Q04DX003 (ip), vehicle: Klucel (hydroxypropylcellulose) (HPC)
[4] = dose: 200.0 mg/kg/injection, schedule: Q04DX003 (ip), vehicle: saline with Tween-80
[5] = dose: 100.0 mg/kg/injection, schedule: Q04DX003 (ip), vehicle: saline with Tween-80
[6] = dose: 3.12 mg/kg/injection, schedule: Q01DX009 (ip), vehicle: water
[7] = dose: 6.25 mg/kg/injection, schedule: Q01DX009 (ip), vehicle: water
[8] = dose: 12.5 mg/kg/injection, schedule: Q01DX009 (ip), vehicle: water
[9] = dose: 25.0 mg/kg/injection, schedule: Q01DX009 (ip), vehicle: water
[10] = dose: 25.0 mg/kg/injection, schedule: Q04DX003 (ip), vehicle: water
[11] = dose: 50.0 mg/kg/injection, schedule: Q01DX009 (ip), vehicle: water
[12] = dose: 50.0 mg/kg/injection, schedule: Q04DX003 (ip), vehicle: water
[13] = dose: 100.0 mg/kg/injection, schedule: Q04DX003 (ip), vehicle: water
[14] = dose: 50.0 mg/kg/injection, schedule: Q01DX009 (ip), vehicle: other
[15] = dose: 100.0 mg/kg/injection, schedule: Q01DX009 (ip), vehicle: Klucel (hydroxypropylcellulose) (HPC)
[16] = dose: 200.0 mg/kg/injection, schedule: Q01DX009 (ip), vehicle: Klucel (hydroxypropylcellulose) (HPC)
[17] = dose: 25.0 mg/kg/injection, schedule: Q01DX009 (ip), vehicle: saline with Tween-80
[18] = dose: 50.0 mg/kg/injection, schedule: Q01DX009 (ip), vehicle: saline with Tween-80
[19] = dose: 100.0 mg/kg/injection, schedule: Q01DX009 (ip), vehicle: saline with Tween-80

Question: With `Cc1cc(C)c(-c2cc(O)c(C)cc2O)c(C)c1` as the molecule, how does the T/C (dose: 0.39 mg/kg/injection, schedule: Q04DX003 (ip), vehicle: other) read?
Answer: 103 % of control

Question: What about the T/C (dose: 0.78 mg/kg/injection, schedule: Q04DX003 (ip), vehicle: other) of the same molecule?
Answer: 108 % of control

Question: What about the T/C (dose: 1.56 mg/kg/injection, schedule: Q04DX003 (ip), vehicle: other) of the same molecule?
Answer: 104 % of control

Question: And the T/C (dose: 3.12 mg/kg/injection, schedule: Q04DX003 (ip), vehicle: other)?
Answer: 90 % of control and 108 % of control

Question: What about the T/C (dose: 6.25 mg/kg/injection, schedule: Q04DX003 (ip), vehicle: other) of the same molecule?
Answer: 88 % of control and 100 % of control

Question: What about the T/C (dose: 12.5 mg/kg/injection, schedule: Q01DX009 (ip), vehicle: other) of the same molecule?
Answer: 97 % of control

Question: What about the T/C (dose: 12.5 mg/kg/injection, schedule: Q04DX003 (ip), vehicle: other) of the same molecule?
Answer: 108 % of control and 109 % of control

Question: And the T/C (dose: 25.0 mg/kg/injection, schedule: Q01DX009 (ip), vehicle: other)?
Answer: 118 % of control

Question: What about the T/C (dose: 25.0 mg/kg/injection, schedule: Q04DX003 (ip), vehicle: other) of the same molecule?
Answer: 92 % of control

Question: What about the T/C [1] of the same molecule?
Answer: 100 % of control

Question: What about the T/C (dose: 65.0 mg/kg/injection, schedule: Q04DX003 (ip), vehicle: Klucel (hydroxypropylcellulose) (HPC)) of the same molecule?
Answer: 105 % of control

Question: What about the T/C [2] of the same molecule?
Answer: 102 % of control

Question: And the T/C [3]?
Answer: 114 % of control

Question: What about the T/C (dose: 150.0 mg/kg/injection, schedule: Q04DX003 (ip), vehicle: Klucel (hydroxypropylcellulose) (HPC)) of the same molecule?
Answer: 109 % of control

Question: What about the T/C [4] of the same molecule?
Answer: 93 % of control

Question: Which T/C (dose: 133.0 mg/kg/injection, schedule: Q01DX010 (ip), vehicle: saline) does the source give for `COc1cc(OC)c(OC)cc1/C=C\c1ccnc2ccccc12` here?
Answer: 120 % of control

Question: And the T/C (dose: 200.0 mg/kg/injection, schedule: Q01DX009 (ip), vehicle: carboxymethylcellulose (CMC))?
Answer: 116 % of control

Question: And the T/C (dose: 200.0 mg/kg/injection, schedule: Q01DX010 (ip), vehicle: saline)?
Answer: 120 % of control

Question: What about the T/C (dose: 400.0 mg/kg/injection, schedule: Q01DX009 (ip), vehicle: carboxymethylcellulose (CMC)) of the same molecule?
Answer: 166 % of control

Question: And the T/C (dose: 450.0 mg/kg/injection, schedule: Q01DX010 (ip), vehicle: saline)?
Answer: 120 % of control

Question: How did the T/C [1] turn out when `COC(=O)c1[nH]c(=O)[nH]c(=O)c1F` was run?
Answer: 113 % of control

Question: And the T/C [5]?
Answer: 122 % of control

Question: And the T/C [4]?
Answer: 90 % of control

Question: Which results are given for `CCOC(=O)/C(N=O)=C(\O)c1ccc2ccccc2n1`?
Answer: T/C [6]: 106 % of control; T/C [7]: 98 % of control and 99 % of control and 103 % of control; T/C [8]: 111 % of control and 123 % of control; T/C [9]: 94 % of control and 104 % of control and 106 % of control; T/C [10]: 97 % of control; T/C [11]: 100 % of control and 103 % of control; T/C [12]: 120 % of control; T/C (dose: 100.0 mg/kg/injection, schedule: Q01DX009 (ip), vehicle: water): 99 % of control; T/C [13]: 105 % of control; T/C (dose: 200.0 mg/kg/injection, schedule: Q01DX009 (ip), vehicle: water): 91 % of control; T/C (dose: 200.0 mg/kg/injection, schedule: Q04DX003 (ip), vehicle: water): 97 % of control; T/C (dose: 400.0 mg/kg/injection, schedule: Q01DX009 (ip), vehicle: water): 110 % of control; T/C (dose: 400.0 mg/kg/injection, schedule: Q04DX003 (ip), vehicle: water): 92 % of control

Question: How did the T/C [14] turn out when `CCSSC(=Nc1ccccc1)OCC(C)C` was run?
Answer: 119 % of control

Question: `Cc1cc2c(cc1C)C(=O)C(N1CCN(C)CC1)CCC2` (stereo not drawn) was tested. Which T/C [1] did it give?
Answer: 100 % of control

Question: And the T/C (dose: 50.0 mg/kg/injection, schedule: Q04DX003 (ip), vehicle: saline with Tween-80)?
Answer: 104 % of control

Question: And the T/C [5]?
Answer: 86 % of control

Question: Which results are given for `COc1cc(Br)c2c(c1OC)C(=O)CC2`?
Answer: T/C [15]: 104 % of control; T/C [3]: 100 % of control; T/C [16]: 95 % of control; T/C (dose: 200.0 mg/kg/injection, schedule: Q04DX003 (ip), vehicle: Klucel (hydroxypropylcellulose) (HPC)): 91 % of control; T/C (dose: 400.0 mg/kg/injection, schedule: Q01DX009 (ip), vehicle: Klucel (hydroxypropylcellulose) (HPC)): 100 % of control; T/C (dose: 400.0 mg/kg/injection, schedule: Q04DX003 (ip), vehicle: Klucel (hydroxypropylcellulose) (HPC)): 95 % of control

Question: For `CC(=O)c1ccc(C(=O)CC(O)(C(F)(F)F)C(F)(F)F)cc1`, which T/C [14] is on record?
Answer: 104 % of control

Question: And the T/C (dose: 50.0 mg/kg/injection, schedule: Q04DX003 (ip), vehicle: other)?
Answer: 90 % of control

Question: What about the T/C [2] of the same molecule?
Answer: 104 % of control

Question: What about the T/C (dose: 100.0 mg/kg/injection, schedule: Q04DX003 (ip), vehicle: other) of the same molecule?
Answer: 95 % of control

Question: How did the T/C (dose: 44.0 mg/kg/injection, schedule: Q04DX003 (ip), vehicle: saline) turn out when `CCOc1ccc2nc3cc(N)ccc3c(N)c2c1` was run?
Answer: 118 % of control

Question: And the T/C (dose: 66.0 mg/kg/injection, schedule: Q04DX003 (ip), vehicle: saline)?
Answer: 118 % of control

Question: And the T/C (dose: 100.0 mg/kg/injection, schedule: Q04DX003 (ip), vehicle: saline)?
Answer: 118 % of control

Question: What about the T/C (dose: 200.0 mg/kg/injection, schedule: Q04DX003 (ip), vehicle: saline) of the same molecule?
Answer: 117 % of control

Question: What about the T/C (dose: 400.0 mg/kg/injection, schedule: Q04DX003 (ip), vehicle: saline) of the same molecule?
Answer: 86 % of control

Question: Which results are given for `O=C(O)c1cc(S(=O)(=O)F)cc(S(=O)(=O)F)c1`?
Answer: T/C (dose: 25.0 mg/kg/injection, schedule: Q01DX009 (ip), vehicle: alcohol): 113 % of control; T/C (dose: 33.0 mg/kg/injection, schedule: Q01DX009 (ip), vehicle: alcohol): 116 % of control; T/C (dose: 50.0 mg/kg/injection, schedule: Q01DX009 (ip), vehicle: alcohol): 112 % of control

Question: `COc1ccc(C(C)(C#N)Nc2ccccc2)cc1` (stereo not drawn) was tested. Which T/C (dose: 50.0 mg/kg/injection, schedule: Q04DX003 (ip), vehicle: saline sonified) did it give?
Answer: 100 % of control

Question: What about the T/C (dose: 100.0 mg/kg/injection, schedule: Q04DX003 (ip), vehicle: saline sonified) of the same molecule?
Answer: 100 % of control

Question: And the T/C (dose: 200.0 mg/kg/injection, schedule: Q04DX003 (ip), vehicle: saline sonified)?
Answer: 100 % of control

Question: With `CN(c1ccccc1)c1cc2c(cc1[N+](=O)[O-])no[n+]2[O-]` as the molecule, how does the T/C (dose: 15.0 mg/kg/injection, schedule: Q01DX009 (ip), vehicle: saline with Tween-80) read?
Answer: 118 % of control

Question: What about the T/C (dose: 60.0 mg/kg/injection, schedule: Q01DX009 (ip), vehicle: saline with Tween-80) of the same molecule?
Answer: 113 % of control

Question: Which T/C [17] does the source give for `CC(=O)[C@H]1CC[C@H]2[C@@H]3CCC4=CC(=O)[C@H](C)C[C@]4(C)[C@@]3(F)[C@@H](O)C[C@]12C` here?
Answer: 100 % of control

Question: And the T/C [18]?
Answer: 100 % of control

Question: And the T/C [19]?
Answer: 95 % of control and 104 % of control

Question: And the T/C [5]?
Answer: 100 % of control

Question: And the T/C [4]?
Answer: 100 % of control

Question: What about the T/C (dose: 400.0 mg/kg/injection, schedule: Q04DX003 (ip), vehicle: saline with Tween-80) of the same molecule?
Answer: 90 % of control

Question: What does the source list for `O=C(O)CC[S-].[Ag+]`?
Answer: T/C [17]: 90 % of control; T/C [18]: 90 % of control; T/C [19]: 86 % of control

Question: Which results are given for `Cc1cc(Sc2ccc(Cl)cc2)nc(Sc2ccc(Cl)cc2)c1C#N`?
Answer: T/C (dose: 50.0 mg/kg/injection, schedule: Q01DX005 (ip), vehicle: saline with Tween-80): 94 % of control; T/C (dose: 100.0 mg/kg/injection, schedule: Q01DX005 (ip), vehicle: saline with Tween-80): 88 % of control; T/C (dose: 200.0 mg/kg/injection, schedule: Q01DX005 (ip), vehicle: saline with Tween-80): 91 % of control

Question: `NC(=O)NC1C(c2ccccc2)=NOC1C(N)=O` (stereo not drawn) was tested. Which T/C [15] did it give?
Answer: 105 % of control

Question: What about the T/C [16] of the same molecule?
Answer: 100 % of control

Question: Which results are given for `Clc1ccc(-c2cc[s+]s2)cc1`?
Answer: T/C [6]: 94 % of control; T/C (dose: 3.12 mg/kg/injection, schedule: Q04DX003 (ip), vehicle: water): 111 % of control; T/C [7]: 110 % of control; T/C (dose: 6.25 mg/kg/injection, schedule: Q04DX003 (ip), vehicle: water): 100 % of control; T/C [8]: 119 % of control; T/C (dose: 12.5 mg/kg/injection, schedule: Q04DX003 (ip), vehicle: water): 97 % of control; T/C [9]: 119 % of control; T/C [10]: 96 % of control and 117 % of control; T/C [11]: 108 % of control; T/C [12]: 90 % of control and 100 % of control; T/C [13]: 98 % of control
